Where “and” joins values, the source holds several entries; their conditions need not be identical. Equal values may be shown once. Where a name gives a salt, the structure may show the parent alone.
Key:
[1] = molecular target: DNMT1 (Homo sapiens, UniProt P26358); test: Selective depletion of DNMT1 by Western blot in treated HCT116 cells; format: cell-based; parameters: Protein extracts (equivalent to 100 μg) were isolated from HCT116 cells; endogenous in cells; host or cells: HCT116; settings: for % DNMT1 protein level remaining at 5 µM: HCT-116, 5 μM; for % DNMT1 protein level remaining at 10 µM: HCT-116, 10 μM; for % DNMT1 protein level remaining at 100 µM: HCT-116, 100 μM
From the text: Biol. 2005, 11, 4727-41.]. For DNMT1, commercially available antibodies from Santa Cruz or New England Biolabs were used.

[2] = system: CMV-EE210 cell line; test: Toxicity (TD50, cell viability) reported with the GFP assay; settings: Dose at which cells are >50% viable
Method: The demethylating activity of non-bis-quaternary 4-anilinoquinolines were tested in a cell-based GFP (green fluorescent protein) assay. This assay has a GFP gene regulated by the CMV promoter and is sensitive to the methylation of CpG sites within the promoter. A decrease in methylation resulting from exposure to a methylation inhibitor leads to GFP expression and is readily scored. Specifically, the CMV-EE210 cell line containing the epigenetically silenced GFP transgene was used to assay for reactivation of GFP expression by flow cytometry. CMV-EE210 was made by transfecting NIH 3T3 cells with the pTR-UF/UF1/UF2 plasmid (Zolotuhin et al., 1996), which is comprised of pBS(+) (Stratagene, Inc.) containing a cytomegalovirus (CMV) promoter driving a humanized GFP gene adapted for expression in mammalian cells. After transfection, high-level GFP expressing cells were initially selected by FACS analysis and sorting using a MoFlo cytometer (Cytomation, Inc.). […] To screen for reactivation of CMV-EE210, decitabine (at […]) or a test compound (at a concentration of 30-50 μM) was added to complete medium (phenol red free DMEM (Gibco, Life Technologies) supplemented with 10% fetal bovine serum (Hyclone)). Cells were then seeded to 30% confluence (˜5000 cell/well) in 96 well plate containing the test compounds and grown for three days in at 37° C. in 5% CO2. The plates were examined under a fluorescent microscope using a 450-490 excitation filter (13 filter cube, Leica, Deerfield Ill.). Wells were scored g1 positive if 10% of viable cells express GFP, g2 positive if 30% of viable cells express GFP and g3 if greater than 75% of the viable cells express GFP. GFP IC 50 is the concentration of an inhibitor that (like an IC50) is the dose at which the GFP expression level goes from g3 to g1/2.

DNMT1, sequence (P26358 whole entry): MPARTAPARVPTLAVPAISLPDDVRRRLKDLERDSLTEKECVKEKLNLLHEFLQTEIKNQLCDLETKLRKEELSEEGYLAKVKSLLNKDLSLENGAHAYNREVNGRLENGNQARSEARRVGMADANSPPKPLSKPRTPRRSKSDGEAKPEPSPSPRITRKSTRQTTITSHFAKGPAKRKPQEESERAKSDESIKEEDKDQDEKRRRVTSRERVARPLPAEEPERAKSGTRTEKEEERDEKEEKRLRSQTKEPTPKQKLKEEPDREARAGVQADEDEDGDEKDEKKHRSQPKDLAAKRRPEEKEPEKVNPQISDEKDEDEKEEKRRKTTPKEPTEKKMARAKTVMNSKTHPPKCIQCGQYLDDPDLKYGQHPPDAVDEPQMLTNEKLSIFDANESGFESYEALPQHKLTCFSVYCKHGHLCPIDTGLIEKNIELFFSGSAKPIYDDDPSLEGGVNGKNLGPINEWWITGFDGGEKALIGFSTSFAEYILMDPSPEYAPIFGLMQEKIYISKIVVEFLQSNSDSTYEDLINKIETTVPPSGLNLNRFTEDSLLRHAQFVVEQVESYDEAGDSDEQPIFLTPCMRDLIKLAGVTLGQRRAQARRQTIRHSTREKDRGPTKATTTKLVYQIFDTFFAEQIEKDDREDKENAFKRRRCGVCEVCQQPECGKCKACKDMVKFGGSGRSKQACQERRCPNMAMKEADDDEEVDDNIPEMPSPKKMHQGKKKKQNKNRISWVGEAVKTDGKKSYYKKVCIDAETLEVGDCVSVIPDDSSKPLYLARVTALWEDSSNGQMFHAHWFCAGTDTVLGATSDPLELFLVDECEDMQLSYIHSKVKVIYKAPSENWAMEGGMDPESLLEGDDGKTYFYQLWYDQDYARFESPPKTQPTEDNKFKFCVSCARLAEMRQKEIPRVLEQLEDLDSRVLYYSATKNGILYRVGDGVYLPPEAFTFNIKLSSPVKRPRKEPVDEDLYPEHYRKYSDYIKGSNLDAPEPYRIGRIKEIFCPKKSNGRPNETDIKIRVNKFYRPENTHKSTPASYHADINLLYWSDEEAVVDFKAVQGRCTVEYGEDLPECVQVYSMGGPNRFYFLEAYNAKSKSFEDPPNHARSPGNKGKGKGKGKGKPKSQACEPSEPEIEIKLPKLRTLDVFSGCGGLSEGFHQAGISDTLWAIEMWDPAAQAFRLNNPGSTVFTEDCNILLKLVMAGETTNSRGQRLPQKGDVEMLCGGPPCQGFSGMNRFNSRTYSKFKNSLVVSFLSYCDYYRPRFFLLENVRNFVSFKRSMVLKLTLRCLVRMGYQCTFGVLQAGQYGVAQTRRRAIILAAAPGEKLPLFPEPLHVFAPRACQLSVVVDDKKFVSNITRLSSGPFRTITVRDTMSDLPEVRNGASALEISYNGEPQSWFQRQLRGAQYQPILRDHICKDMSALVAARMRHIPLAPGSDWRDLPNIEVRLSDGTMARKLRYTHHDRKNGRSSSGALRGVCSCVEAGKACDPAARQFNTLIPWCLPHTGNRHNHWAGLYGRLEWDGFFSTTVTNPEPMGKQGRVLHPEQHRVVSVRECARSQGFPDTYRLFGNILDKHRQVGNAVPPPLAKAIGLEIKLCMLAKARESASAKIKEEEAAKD

| % DNMT1 protein level remaining at 5 µM [1] | % DNMT1 protein level remaining at 10 µM [1] | melting point | Structure (SMILES) | other results |
| --- | --- | --- | --- | --- |
| 25% | 15% | 170 to 173 °C | CN(C)c1ccc2nccc(Nc3ccc(NC(=O)c4cccc(Nc5cc[n+](C)cc5)c4)cc3)c2c1 [Cpd. OO1, 6-(dimethylamino)-4-[4-({3-[(1-methyl-4-pyridiniumyl)amino]benzoyl}amino)anilino]-quinolinium dichloride] | – |
| – | – | – | C[n+]1ccc(Nc2ccc(C(=O)Nc3ccc(Nc4ccnc5cc([N+](=O)[O-])ccc45)cc3)cc2)cc1.Cl.[Cl-] [Cpd. U, 4-[4-({4-[(1-methyl-4-pyridiniumyl)amino]benzoyl}amino)anilino]-7-nitroquinolinium dichloride] | % DNMT1 Level ([1]; 5 μM): 97%; % DNMT1 Level ([1]; 10 μM): 53%; % DNMT1 Level ([1]; 100 μM): 32%; TD50 [2]: 25 µM |
| – | – | 183 to 187 °C | C[n+]1ccc(Nc2ccc(NC(=O)c3ccc(Nc4ccnc5ccc([N+](=O)[O-])cc45)cc3)cc2)cc1 (as salt: hydrochloride) [Cpd. G, 1-methyl-4-(4-(4-(6-nitroquinolin-4-ylamino)benzamido)phenylamino)pyridinium chloride hydrochloride] | – |
| – | – | – | C[n+]1ccc(Nc2cccc(C(=O)Nc3ccc(Nc4ccnc5cc([N+](=O)[O-])ccc45)cc3)c2)cc1.Cl.[Cl-] [Cpd. T, 4-[4-({3-[(1-methyl-4-pyridiniumyl)amino]benzoyl}amino)anilino]-7-nitroquinolinium dichloride] | % DNMT1 Level ([1]; 5 μM): 64%; % DNMT1 Level ([1]; 10 μM): 69%; % DNMT1 Level ([1]; 100 μM): 85%; TD50 [2]: 25 µM |
| – | – | > 300 °C | Cc1cc(Nc2ccc(C(=O)Nc3ccc(Nc4ccnc5ccc(N(C)C)cc45)cc3)cc2)nc(N)n1 (as salt: hydrochloride) [Cpd. HH, 4-[(2-amino-6-methyl-4-pyrimidinyl)amino]-N-(4-{[6-(dimethylamino)-4-quinolinyl]amino}phenyl)benzamide dihydrochloride] | – |
| – | – | 295 to 300 °C | Cc1cc(Nc2ccc(C(=O)Nc3ccc(Nc4ccnc5ccc([N+](=O)[O-])cc45)cc3)cc2)nc(N)n1 (as salt: hydrochloride) [Cpd. GG4, 4-[(2-Amino-6-methyl-4-pyrimidinyl)amino]-N-{4-[(6-nitro-4-quinolinyl)amino]phenyl}benzamide dihydrochloride] | – |
| – | – | > 280 °C | Cc1cc(Nc2ccc(NC(=O)c3ccc(Nc4ccnc5c(F)c(F)c(F)cc45)cc3)cc2)nc(N)n1 (as salt: hydrochloride) [Cpd. KK, n-[4-(2-amino-6-methylpyrimidin-4-ylamino)phenyl]-4-(6,7,8-trifluoroquinolin-4-ylamino)benzamide dihydrochloride] | – |
| – | – | > 300 °C | Cc1cc(Nc2cccc(C(=O)Nc3ccc(Nc4ccnc5ccc([N+](=O)[O-])cc45)cc3)c2)nc(N)n1 (as salt: hydrochloride) [RR2, 3-[(2-amino-6-methyl-4-pyrimidinyl)amino]-N-{4-[(6-nitro-4-quinolinyl)amino]phenyl}benzamide dihydrochloride] | – |
| 70% | 15% | 250 to 254 °C | Cc1cc(Nc2ccc(NC(=O)c3ccc(Nc4ccnc5ccc(Cl)cc45)cc3)cc2)nc(N)n1 [Cpd. LL, N-[4-(2-amino-6-methylpyrimidin-4-ylamino)phenyl]-4-(6-chloroquinolin-4-ylamino)benzamide] | – |
| – | – | > 300 °C | Cc1cc(Nc2ccc(C(=O)Nc3ccc(Nc4ccnc5cc([N+](=O)[O-])ccc45)cc3)cc2)nc(N)n1 (as salt: hydrochloride) [Cpd. GG5, 4-[(2-Amino-6-methyl-4-pyrimidinyl)amino]-N-{4-[(7-nitro-4-quinolinyl)amino]phenyl}benzamide dihydrochloride] | – |
| – | – | > 300 °C | Cc1cc(Nc2cccc(C(=O)Nc3ccc(Nc4ccnc5ccc(N(C)C)cc45)cc3)c2)nc(N)n1 (as salt: chloride) [Cpd. EE, 4-[4-({3-[(2-amino-6-methyl-4-pyrimidinyl)amino]benzoyl}amino)anilino]-6-(dimethylamino)quinolinium chloride] | – |
| 45% | 75% | 242 to 245 °C | C[n+]1ccc(Nc2ccc(NC(=O)c3ccc(Nc4ccnc5cc(N)ccc45)cc3)cc2)cc1 [Cpd. W, 1-methyl-4-[4-(4-{7-aminoquinolin-4-ylamino}benzamido)-phenylamino]pyridinium dichloride] | – |
| – | – | 257 to 262 °C and 257 to 261 °C | Cc1cc(Nc2ccc(C(=O)Nc3ccc(Nc4ccnc5cc(N)ccc45)cc3)cc2)nc(N)n1 (as salt: hydrochloride) [Cpd. GG2, 4-[(2-Amino-6-methyl-4-pyrimidinyl)amino]-N-{4-[(7-amino-4-quinolinyl)amino]phenyl}benzamide dihydrochloride] | – |
| – | – | > 300 °C | Nc1cc(Nc2cccc(C(=O)Nc3ccc(Nc4ccnc5ccccc45)cc3)c2)nc(N)n1 (as salt: hydrochloride) [Cpd. FF2, 3-[(2,6-Diamino-4-pyrimidinyl)amino]-N-[4-(4-quinolinylamino)-phenyl]benzamide dihydrochloride] | – |
| 50% | 95% | 156 °C (dec.) | CN(C)c1ccc2nccc(Nc3ccc(NC(=O)c4ccc(Nc5cc[n+](C)cc5)cc4)cc3)c2c1 [Cpd. OO2, 6-(Dimethylamino)-4-[4-({4-[(1-methyl-4-pyridiniumyl)amino]benzoyl}amino)-anilino]quinolinium dichloride] | – |

| Structure (SMILES) | % DNMT1 protein level remaining at 5 µM [1] | % DNMT1 protein level remaining at 10 µM [1] | melting point | other results |
| --- | --- | --- | --- | --- |
| C/C(=N\N=C(N)N)c1ccc(NC(=O)c2ccc(Nc3ccnc4ccc([N+](=O)[O-])cc34)cc2)cc1 [Cpd. I, (E)-N-[4-{1-([diaminomethylene]hydrazono)ethyl}phenyl]-4-(6-nitroquinolin-4-ylamino)benzamide hydrochloride] | 27% | 80% | – | % DNMT1 protein level remaining at 100 µM [1]: 48%; TD50 [2]: 25 µM |
| C[n+]1ccc(Nc2cccc(NC(=O)c3ccc(Nc4ccnc5ccc([N+](=O)[O-])cc45)cc3)c2)cc1 [Cpd. F, 1-methyl-4-(3-{[4-(6-nitro-4-quinolinylamino)benzoyl]amino}anilino)pyridinium chloride] | 145% | 210% | – | % DNMT1 protein level remaining at 100 µM [1]: 155%; TD50 [2]: 25 µM |
| C[n+]1ccc(Nc2ccc(NC(=O)c3ccc(Nc4ccnc5ccccc45)cc3)cc2)cc1 (as salt: hydrochloride) [Cpd. B, 1-methyl-4-(4-(4-(quinolin-4-ylamino)benzamido)phenylamino)pyridinium chloride hydrochloride] | – | – | > 300 °C | – |
| Cc1cc(Nc2ccc(NC(=O)c3ccc(Nc4ccnc5ccc([N+](=O)[O-])cc45)cc3)cc2)nc(N)n1 [Cpd. H, N-(4-(2-amino-6-methylpyrimidin-4-ylamino)phenyl)-4-(6-nitroquinolin-4-ylamino)benzamide hydrochloride] | 132% | 25% | – | % DNMT1 protein level remaining at 100 µM [1]: 24%; TD50 [2]: 12.5 µM |
| C[n+]1ccc(Nc2cccc(NC(=O)c3ccc(Nc4ccnc5ccc([N+](=O)[O-])cc45)cc3)c2)cc1 (as salt: chloride) [Cpd. F, 1-methyl-4-(3-{[4-(6-nitro-4-quinolinylamino)benzoyl]amino}anilino)pyridinium chloride] | – | – | 273 to 277 °C | – |
| C[n+]1ccc(Nc2cccc(NC(=O)c3ccc(Nc4ccnc5cc([N+](=O)[O-])ccc45)cc3)c2)cc1 (as salt: chloride) [Cpd. R, 1-methyl-4-[3-({4-[(7-nitro-4-quinolinyl)amino]benzoyl}amino)anilino]pyridinium chloride] | – | – | 303 °C (dec.) | – |
| Cc1cc(Nc2ccc(NC(=O)c3ccc(Nc4ccnc5ccc([N+](=O)[O-])cc45)cc3)cc2)nc(N)n1 (as salt: hydrochloride) [Cpd. H, N-(4-(2-amino-6-methylpyrimidin-4-ylamino)phenyl)-4-(6-nitroquinolin-4-ylamino)benzamide hydrochloride] | – | – | 301 to 305 °C | – |
| C[n+]1ccc(Nc2ccc(C(=O)Nc3ccc(Nc4ccnc5ccc(N)cc45)cc3)cc2)cc1 (as salt: chloride) [Cpd. N, 4-[4-({4-[(6-amino-4-quinolinyl)amino]anilino}carbonyl)anilino]-1-methylpyridinium chloride] | – | – | > 300 °C | – |

From patent US7939546B2, “Quinoline derivatives for modulating DNA methylation” (SuperGen, Inc., priority 2007, dated 2011)
